Assays:
human cartilage tissue [1] = assay: Protection of human cartilage tissue during liquid nitrogen freezing (HE stain, separation of cartilage from hard bone); details: applied to articular cartilage, liquid nitrogen 20 minutes, warmed to room temperature 20 minutes
From the text: Unneeded normal cartilage tissues (residual specimens) taken from the human body during surgery were divided into three groups and treated separately: control group A was not treated; for control group B, traditional commercially available anti-freezing agent was applied to articular cartilage; and for experimental group C, the anti-freezing agent of the present invention was applied to the articular cartilage. The control and experimental groups were separately placed in liquid nitrogen to freeze for 20 minutes, slowly warmed to room temperature for 20 minutes, fixed with 4% paraformaldehyde, pathologically sectioned, and then stained by hematoxylin-eosin. […] The size of separation was 2.16 mm in the control group A, 1.2 mm in the control group B, and 0.45 mm in the experimental group. It was shown that the anti-freezing agent of the present invention can protect cartilage tissue and reduce the separation of cartilage and hard bone caused by freezing.

human cartilage tissue [2] = assay: Change of cartilage color index (luminance level of cartilage surface) after freezing; details: applied to articular cartilage; liquid nitrogen 20 minutes, warmed to room temperature 20 minutes
From the text: Unneeded normal cartilage tissues (residual specimens) taken from the human body during surgery were divided into three groups and treated separately: control group A was not treated; for control group B, traditional commercially available anti-freezing agent was applied to articular cartilage; and for experimental group C, the anti-freezing agent of the present invention was applied to the articular cartilage. The control and experimental groups were separately placed in liquid nitrogen to freeze for 20 minutes, and then slowly warmed to room temperature for 20 minutes. The color index change of the cartilage surface was observed by analyzing the decrease of luminance level of the cartilage surface.

rat knee cartilage = assay: Protective effect on rat knee cartilage during liquid nitrogen freezing (HE stain of pathological sections); details: coated at articular cartilage; liquid nitrogen 20 minutes, warmed to room temperature 20 minutes
Procedure: The rat knee cartilage was taken out. The control group A was not treated, and the control group B was coated with a conventional commercially available anti-freezing agent (dimethyl sulfoxide) at the articular cartilage. The experimental groups were coated with the anti-freezing agent of the present invention at the articular cartilage, separately placed in liquid nitrogen for 20 minutes, slowly warmed to room temperature for 20 minutes, fixed with 4% paraformaldehyde, pathologically sectioned, and then stained with hematoxylin-eosin (HE stain). The pathological sections of hematoxylin-eosin stained control group (A), control group (B), and experimental group (C). are shown in FIG. 2. After freezing, in the control group A the cartilage surface became brittle and uneven (as indicated by the arrow), and the control group B was also uneven (as indicated by the arrow).

C[S+](C)[O-] [dimethyl sulfoxide]
separation at the intersection of the cartilage bottom and the hard bone after freezing (human cartilage tissue [1]; HE stain): separation (the stellate) also occurred | size of separation (human cartilage tissue [1]; untreated control 2.16 mm): 1.2 mm | decrease of luminance level of the cartilage surface after freezing (human cartilage tissue [2]): significantly decreased | cartilage surface after freezing (hematoxylin-eosin stained section) (rat knee cartilage): uneven
